Assay: method code SF-AS, from DOI: 10.1248/cpb.33.2403, PMID: 4064199

SMILES | logP
NC(=O)OCCc1ccccc1 | 1.5
NC(=O)OCCc1c[nH]c2ccccc12 | 1.69
NC(=O)OCCCc1ccccc1 | 1.96
CN(C)C(=O)OCCc1c[nH]c2ccccc12 | 2.54
CCN(CC)C(=O)OCCc1ccccc1 | 3.2
CCN(CC)C(=O)OCC(C)C | 2.82
NC(=O)OCCCc1cccnc1 | 0.46
CCN(CC)C(=O)OCc1ccccc1 | 2.93
CN(C)C(=O)OCCCc1cccnc1 | 1.44
CN(C)C(=O)OCCc1ccccc1 | 2.4
NC(=O)OCc1ccc(Cl)cc1 | 1.97
CC(C)OC(=O)N(C)C | 1.38
CCN(CC)C(=O)OCCc1c[nH]c2ccccc12 | 3.3
CCC(CC)COC(N)=O | 1.98
CCC(CC)COC(=O)N(C)C | 2.87
CNC(=O)OCc1ccccc1 | 1.68
CN(C)C(=O)OCCCc1ccccc1 | 2.93

Assay: method code SF-GLC, from DOI: 10.1248/cpb.33.2403, PMID: 4064199

SMILES | logP
CC(C)COC(=O)N(C)C | 2
CC(C)COC(N)=O | 0.98

Assay: method code SF-HPLC, from DOI: 10.1248/cpb.33.2403, PMID: 4064199

SMILES | logP
CC(Cc1ccccc1)OC(=O)N(C)C (stereo unspecified) | 2.6
CCC(CC)COC(=O)N(CC)CC | 3.6

Reference: the SangsterLogP compilation
